Measurements as given in patent US20240217966A1, “PHARMACEUTICAL COMPOSITION CONTAINING GLP-1 RECEPTOR AGONIST HAVING FUSED RING” (Shionogi & Co., Ltd., priority 2021, published 2024).

Biological target: T1, Human GLP-1 receptor (Homo sapiens, UniProt P43220)
T1 construct: expressed in transfected cells
Test: Measurement of GLP-1 receptor agonist activity (cAMP assay)
Format: cell-based
Details: for Emax: CHO-K1, hGLP-1R/CHO-K1 cells, cAMP, 100% = human GLP-1 (7-36) at 2 nM, 0% = DMSO only, read-out: Emax(%); for EC50: hGLP-1R/CHO-K1 cells, cAMP increase, 37° C. 1 hour
Experimental: Test Example 1: (Measurement of GLP-1 Receptor Agonist Activity)
Human GLP-1 receptor stably expressing cells (hGLP-1R/CHO-K1 cells) are cultured in an α-MEM medium (Sigma) containing 10% FBS (Hyclone), 2% GlutaMAX (Gibco), 1% G418 (Nacalai Tesque), and 1% Penicillin-Streptomycin Mixed Solution (Sigma) at 37° C. under 5% CO2 conditions, and recovered by treating a 10 fold diluted 5.0 g/l-trypsin/5.3 mmol/l-EDTA solution (Nacalai Tesque) and cryopreserved.
A DMSO solution containing the compound of the present invention or human GLP-1 (7-36) (Phoenix Pharmaceuticals) is dispensed into a 384-well microplate (Greiner) at 62.5 nL/well, and in addition, 400 μM Forskolin (Nacalai Tesque) is dispensed therein at 7.5 nL/well. Subsequently, the frozen GLP-1 R/CHO-K1 cells are thawed in a thermostatic bath at 37° C., suspended in HBSS buffer (GIBCO) containing 0.1% BSA (Sigma), 20 mM HEPES (GIBCO), 0.1 mM IBMX (Sigma), and 0.2 mM RO20-1724 (Calbiochem) at 2×10^4 cells/mL, and the cell suspension is added at 6 μL/well. The solution was incubated at 37° C. for 1 hour and intracellular cAMP concentration is measured using cAMP Gs dynamic kit (Cisbio) according to the protocol attached to the product. Specifically, cAMP-d2 and Anti-cAMP-Cryptate are each added in an amount of 3 μL/well, the mixture is incubated at room temperature for 1 hour, and time-resolved fluorescence is measured using PHERAstar (BMG Labtech).
The dilution concentration or the dilution solvent are changed as necessary.
The compounds of the present invention were tested essentially as described above.

T1 sequence (P43220 24-463): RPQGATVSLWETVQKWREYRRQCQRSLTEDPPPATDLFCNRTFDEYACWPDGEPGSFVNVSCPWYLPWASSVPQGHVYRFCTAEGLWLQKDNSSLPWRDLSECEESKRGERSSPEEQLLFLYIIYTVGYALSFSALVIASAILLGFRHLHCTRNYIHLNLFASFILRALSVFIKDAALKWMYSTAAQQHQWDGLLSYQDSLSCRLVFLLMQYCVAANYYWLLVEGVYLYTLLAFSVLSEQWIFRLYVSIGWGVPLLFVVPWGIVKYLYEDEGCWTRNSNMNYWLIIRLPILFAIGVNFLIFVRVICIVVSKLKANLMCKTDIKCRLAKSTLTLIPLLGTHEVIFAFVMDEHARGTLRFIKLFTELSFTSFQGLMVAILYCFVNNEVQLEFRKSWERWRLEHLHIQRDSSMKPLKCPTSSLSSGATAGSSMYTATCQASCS

Row | Structure (SMILES) | Emax [%] | EC50 [nM]
1 | O=C(O)c1cc(Cl)c2nc(CN3CCc4cc(C(F)(F)F)c(OCc5ccc(Cl)cc5F)cc4C3)n(C[C@@H]3CCO3)c2c1 [Compound I-061] | 113 | 1.56
2 | O=C(O)c1ccc2nc(CN3CCc4nc(C(F)(F)F)c(OCc5ccc(Cl)cc5F)cc4C3)n(C[C@@H]3CCO3)c2c1 [Compound I-062] | 98.3 | 11.6
3 | O=C(O)c1ccc2nc(CN3CCc4cc(C(F)(F)F)c(OCc5ccc(Cl)cc5F)cc4C3)n(CCOC(F)F)c2c1 [Compound I-063] | 128 | 98.1
4 | O=C(O)c1ccc2nc(CN3CCc4cc(C(F)(F)F)c(OCc5cc(F)c(Cl)cc5F)cc4C3)n(C[C@@H]3CCO3)c2c1 [Compound I-064] | 102 | 5.74
5 | Fc1cc(Cl)ccc1COc1cc2c(cc1C(F)(F)F)CCN(Cc1nc3ccc(-c4nnn[nH]4)cc3n1C[C@@H]1CCO1)C2 [Compound I-065] | 116 | 9.82
6 | O=C(O)c1ccc2nc(CN3CCc4cc(C(F)(F)F)c(OCc5ccc(Cl)cn5)cc4C3)n(C[C@@H]3CCO3)c2c1 [Compound I-067] | 130 | 3.33
7 | O=C(O)c1ccc2nc(CN3CCc4cc(C(F)(F)F)c(OCc5ncc(Cl)cc5F)cc4C3)n(C[C@@H]3CCO3)c2c1 [Compound I-068] | 114 | 3.54
8 | Cn1ccc(COc2cc3c(cc2C(F)(F)F)CCN(Cc2nc4ccc(C(=O)O)cc4n2C[C@@H]2CCO2)C3)n1 [Compound I-069] | 116 | 7.28
9 | Cc1cc(COc2cc3c(cc2C(F)(F)F)CCN(Cc2nc4ccc(C(=O)O)cc4n2C[C@@H]2CCO2)C3)no1 [Compound I-070] | 119 | 23.4
10 | Cn1cc(COc2cc3c(cc2C(F)(F)F)CCN(Cc2nc4ccc(C(=O)O)cc4n2C[C@@H]2CCO2)C3)cn1 [Compound I-071] | 114 | 63.9
11 | Cn1nnc2cc(COc3cc4c(cc3C(F)(F)F)CCN(Cc3nc5ccc(C(=O)O)cc5n3C[C@@H]3CCO3)C4)ccc21 [Compound I-072] | 127 | 12.6
12 | O=C(O)c1ccc2nc(CN3CCc4cc(C(F)(F)F)c(OCc5ccc6c(c5)CCC6)cc4C3)n(C[C@@H]3CCO3)c2c1 [Compound I-074] | 100 | 40
13 | O=C(O)c1ccc2nc(Cc3ccc4nc(C(F)(F)F)c(OCc5ccc(Cl)cc5F)nc4c3)n(C[C@@H]3CCO3)c2c1 [Compound I-076] | 108 | 1.59
14 | O=C(O)c1ccc2nc(CN3CCc4cc(C(F)(F)F)c(OCc5ccc(Cl)cc5F)cc4C3)n(C[C@@H]3CCO3)c2c1Cl [Compound I-078] | 112 | 28.6
15 | O=C(O)c1ccc2nc(CN3CCc4cc(C(F)(F)F)c(OCc5ccc(F)cc5)cc4C3)n(C[C@@H]3CCO3)c2c1 [Compound I-079] | 103 | 6.8
16 | O=C(O)c1ccc2nc(CN3CCc4cc(C(F)(F)F)c(OCc5ccc(Cl)cc5)cc4C3)n(C[C@@H]3CCO3)c2c1 [Compound I-080] | 103 | 3.89
17 | O=C(O)c1ccc2nc(CN3CCc4cc(C(F)(F)F)c(OCc5ccc(C(F)F)cc5)cc4C3)n(C[C@@H]3CCO3)c2c1 [Compound I-081] | 101 | 7.66
18 | O=C(O)c1ccc2nc(CN3CCc4cc(C(F)(F)F)c(OCc5ccc(OC(F)F)cc5)cc4C3)n(C[C@@H]3CCO3)c2c1 [Compound I-082] | 103 | 2.32
19 | O=C(O)c1ccc2nc(CN3CCc4cc(C(F)(F)F)c(OCc5ccc(C(F)(F)F)cc5)cc4C3)n(C[C@@H]3CCO3)c2c1 [Compound I-083] | 93 | 21.4
20 | O=C(O)c1ccc2nc(CN3CCc4cc(C(F)(F)F)c(OCc5ccc(OC(F)(F)F)cc5)cc4C3)n(C[C@@H]3CCO3)c2c1 [Compound I-084] | 106 | 91.9
21 | Cc1ccc(COc2cc3c(cc2C(F)(F)F)CCN(Cc2nc4ccc(C(=O)O)cc4n2C[C@@H]2CCO2)C3)cc1 [Compound I-085] | 111 | 4.47
